Experimental data taken from ChEMBL document CHEMBL1201862, “PubChem BioAssay data set” (2004).
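How tested: cells in 96-well plates exposed to compound for 48 hours at five concentrations. GI50 is the concentration that inhibits growth by half.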 The source made the active and inactive calls. No stated cut-off is given here; in the data, active = GI50 up to about 1.1 µM and inactive = higher.

Columns and labels:
Assay in all cases: NCI-60 cell line screen, 48 h
BT-549 = test system: BT-549
SK-MEL-28 = test system: SK-MEL-28
OVCAR-3 = test system: OVCAR-3
NCI-H226 = test system: NCI-H226
OVCAR-8 = test system: OVCAR-8
SK-MEL-5 = test system: SK-MEL-5
UO-31 = test system: UO-31
HCT-15 = test system: HCT-15
HT-29 = test system: HT-29
K562 = test system: K562
Malme-3M = test system: Malme-3M
UACC-257 = test system: UACC-257
SNB-75 = test system: SNB-75
UACC-62 = test system: UACC-62
SF-539 = test system: SF-539
HCT-116 = test system: HCT-116
LOX IMVI = test system: LOX IMVI
RXF 393 = test system: RXF 393
Hs-578T = test system: Hs-578T
HOP-92 = test system: HOP-92
786-0 = test system: 786-0
HOP-62 = test system: HOP-62
PC-3 = test system: PC-3
SN12C = test system: SN12C
MCF7 = test system: MCF7
MOLT-4 = test system: MOLT-4
A549 = test system: A549
RPMI-8226 = test system: RPMI-8226
MDA-MB-231 = test system: MDA-MB-231
U-251 = test system: U-251
DU-145 = test system: DU-145
NCI-H23 = test system: NCI-H23
NCI/ADR-RES = test system: NCI/ADR-RES
KM12 = test system: KM12
M14 = test system: M14
SNB-19 = test system: SNB-19
SF-268 = test system: SF-268
MDA-N = test system: MDA-N
SK-MEL-2 = test system: SK-MEL-2
NCI-H460 = test system: NCI-H460
CAKI-1 = test system: CAKI-1
COLO 205 = test system: COLO 205
ACHN = test system: ACHN
OVCAR-5 = test system: OVCAR-5
HCC 2998 = test system: HCC 2998
TK-10 = test system: TK-10
SK-OV-3 = test system: SK-OV-3
OVCAR-4 = test system: OVCAR-4
EKVX = test system: EKVX
HL-60 = test system: HL-60
SW-620 = test system: SW-620
MDA-MB-435 = test system: MDA-MB-435
SF-295 = test system: SF-295
CCRF-CEM = test system: CCRF-CEM
A498 = test system: A498
IGROV-1 = test system: IGROV-1
SR = test system: SR

With `COc1c(N2CCCCC2)c2c(=O)c3ccccc3oc2c2c3ccccc3n(C)c12` the GI50 (BT-549) was 98.6 µM (inactive), the GI50 (SK-MEL-28) was > 100 µM (inactive) and the GI50 (OVCAR-3) was > 100 µM (inactive). For the same molecule, the GI50 (NCI-H226) was > 100 µM (inactive), the GI50 (OVCAR-8) was > 100 µM (inactive) and the GI50 (SK-MEL-5) was > 100 µM (inactive). For the same molecule, the GI50 (UO-31) was > 100 µM (inactive), the GI50 (HCT-15) was greater than 100 µM and the GI50 (HT-29) was 42.4 µM (inactive). The GI50 (K562) was 58.2 µM (inactive), the GI50 (Malme-3M) was > 100 µM (inactive) and the GI50 (UACC-257) was > 100 µM (inactive). The GI50 (SNB-75) was > 100 µM (inactive), the GI50 (UACC-62) was > 100 µM (inactive) and the GI50 (SF-539) was > 100 µM (inactive). For the same molecule, the GI50 (HCT-116) was 53.1 µM (inactive), the GI50 (LOX IMVI) was > 100 µM (inactive) and the GI50 (RXF 393) was 94.6 µM (inactive). For the same molecule, the GI50 (Hs-578T) was > 100 µM (inactive), the GI50 (HOP-92) was > 100 µM (inactive) and the GI50 (786-0) was > 100 µM (inactive). For the same molecule, the GI50 (HOP-62) was > 100 µM (inactive), the GI50 (PC-3) was > 100 µM (inactive) and the GI50 (SN12C) was 47.6 µM (inactive). The GI50 (MCF7) was 29.7 µM (inactive), the GI50 (MOLT-4) was 54.8 µM (inactive) and the GI50 (A549) was > 100 µM (inactive). For the same molecule, the GI50 (RPMI-8226) was 47.1 µM (inactive), the GI50 (MDA-MB-231) was > 100 µM (inactive) and the GI50 (U-251) was > 100 µM (inactive). The GI50 (DU-145) was > 100 µM (inactive), the GI50 (NCI-H23) was > 100 µM (inactive) and the GI50 (NCI/ADR-RES) was > 100 µM (inactive). For the same molecule, the GI50 (KM12) was > 100 µM (inactive), the GI50 (M14) was > 100 µM (inactive) and the GI50 (SNB-19) was > 100 µM (inactive). The GI50 (SF-268) was > 100 µM (inactive), the GI50 (MDA-N) was 38.1 µM (inactive) and the GI50 (SK-MEL-2) was > 100 µM (inactive). The GI50 (NCI-H460) was > 100 µM (inactive), the GI50 (CAKI-1) was > 100 µM (inactive) and the GI50 (COLO 205) was 26.2 µM (inactive). For the same molecule, the GI50 (ACHN) was > 100 µM (inactive), the GI50 (OVCAR-5) was > 100 µM (inactive) and the GI50 (HCC 2998) was > 100 µM (inactive). The GI50 (TK-10) was > 100 µM (inactive), the GI50 (SK-OV-3) was > 100 µM (inactive) and the GI50 (OVCAR-4) was > 100 µM (inactive). The GI50 (EKVX) was > 100 µM (inactive), the GI50 (HL-60) was 57.3 µM (inactive) and the GI50 (SW-620) was > 100 µM (inactive). The GI50 (MDA-MB-435) was > 100 µM (inactive), the GI50 (SF-295) was > 100 µM (inactive) and the GI50 (CCRF-CEM) was 64.3 µM (inactive).

With `O=C(OCCN=C1c2ccccc2CCc2ccccc21)c1cc([N+](=O)[O-])cc([N+](=O)[O-])c1` the GI50 (BT-549) was > 100 µM (inactive), the GI50 (SK-MEL-28) was > 31.6 µM (inactive) and the GI50 (OVCAR-3) was 23.3 µM (inactive). The GI50 (A498) was > 10 µM (inactive), the GI50 (NCI-H226) was > 31.6 µM (inactive) and the GI50 (OVCAR-8) was > 31.6 µM (inactive). The GI50 (SK-MEL-5) was 27.2 µM (inactive), the GI50 (UO-31) was 21.9 µM (inactive) and the GI50 (HCT-15) was greater than 31.6 µM. The GI50 (HT-29) was > 31.6 µM (inactive), the GI50 (K562) was 20.7 µM (inactive) and the GI50 (Malme-3M) was > 31.6 µM (inactive). The GI50 (UACC-257) was > 31.6 µM (inactive), the GI50 (IGROV-1) was 28.2 µM (inactive) and the GI50 (SNB-75) was > 100 µM (inactive). For the same molecule, the GI50 (UACC-62) was > 31.6 µM (inactive), the GI50 (SF-539) was > 31.6 µM (inactive) and the GI50 (HCT-116) was > 31.6 µM (inactive). For the same molecule, the GI50 (LOX IMVI) was > 31.6 µM (inactive), the GI50 (RXF 393) was > 31.6 µM (inactive) and the GI50 (Hs-578T) was > 31.6 µM (inactive). For the same molecule, the GI50 (HOP-92) was > 31.6 µM (inactive), the GI50 (786-0) was > 31.6 µM (inactive) and the GI50 (HOP-62) was > 31.6 µM (inactive). For the same molecule, the GI50 (PC-3) was > 31.6 µM (inactive), the GI50 (SR) was 3.52 µM (inactive) and the GI50 (SN12C) was > 31.6 µM (inactive). The GI50 (MCF7) was > 31.6 µM (inactive), the GI50 (MOLT-4) was 4.22 µM (inactive) and the GI50 (A549) was 26.7 µM (inactive). The GI50 (RPMI-8226) was 5.09 µM (inactive), the GI50 (MDA-MB-231) was > 31.6 µM (inactive) and the GI50 (U-251) was > 100 µM (inactive). For the same molecule, the GI50 (DU-145) was > 31.6 µM (inactive), the GI50 (NCI-H23) was > 31.6 µM (inactive) and the GI50 (NCI/ADR-RES) was > 31.6 µM (inactive). The GI50 (KM12) was 28.1 µM (inactive), the GI50 (M14) was > 31.6 µM (inactive) and the GI50 (SNB-19) was > 31.6 µM (inactive). For the same molecule, the GI50 (SF-268) was > 31.6 µM (inactive), the GI50 (MDA-N) was > 31.6 µM (inactive) and the GI50 (SK-MEL-2) was > 31.6 µM (inactive). The GI50 (NCI-H460) was > 31.6 µM (inactive), the GI50 (CAKI-1) was 29.3 µM (inactive) and the GI50 (COLO 205) was > 31.6 µM (inactive). The GI50 (ACHN) was > 31.6 µM (inactive), the GI50 (OVCAR-5) was > 31.6 µM (inactive) and the GI50 (TK-10) was > 31.6 µM (inactive). For the same molecule, the GI50 (SK-OV-3) was > 100 µM (inactive), the GI50 (OVCAR-4) was 78.2 µM (inactive) and the GI50 (EKVX) was > 31.6 µM (inactive). For the same molecule, the GI50 (HL-60) was 25.7 µM (inactive), the GI50 (SW-620) was > 31.6 µM (inactive) and the GI50 (MDA-MB-435) was > 31.6 µM (inactive). The GI50 (SF-295) was 23.6 µM (inactive) and the GI50 (CCRF-CEM) was 74.6 µM (inactive).
